Measured values taken from EP2644601A1, “Compounds with matrix-metalloproteinase inhibitory activity and imaging agents thereof” (Westfälische Wilhelms-Universität Münster, priority 2012, dated 2013).

Tests used:
Assay type in all cases: biochemical
MMP-2 = target: T1, MMP-2 (Homo sapiens, UniProt P08253); test: MMP compound screening with Fluorimetric SensoLyte 390 Generic MMP Activity Kit, recombinant MMP-2
T1 sequence (P08253 110-660): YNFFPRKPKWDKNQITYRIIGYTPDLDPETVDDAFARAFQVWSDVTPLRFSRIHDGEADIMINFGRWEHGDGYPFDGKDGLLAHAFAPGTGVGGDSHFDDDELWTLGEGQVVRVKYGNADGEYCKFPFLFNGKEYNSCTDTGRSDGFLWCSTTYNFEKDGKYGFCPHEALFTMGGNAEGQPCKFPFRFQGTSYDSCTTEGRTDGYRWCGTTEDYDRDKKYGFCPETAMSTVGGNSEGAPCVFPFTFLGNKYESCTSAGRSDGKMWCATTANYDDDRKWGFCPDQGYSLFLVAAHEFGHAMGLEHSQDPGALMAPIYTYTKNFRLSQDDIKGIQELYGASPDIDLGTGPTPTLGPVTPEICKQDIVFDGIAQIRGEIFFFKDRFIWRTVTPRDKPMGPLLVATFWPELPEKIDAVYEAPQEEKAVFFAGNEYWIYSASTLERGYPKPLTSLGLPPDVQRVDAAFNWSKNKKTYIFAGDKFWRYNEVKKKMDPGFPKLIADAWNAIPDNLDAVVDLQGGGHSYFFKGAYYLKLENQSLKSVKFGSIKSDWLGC
Method: (§1) The activities were determined using Fluorimetric SensoLyte® 390 Generic MMP Activity Kit from Anaspec (cat # 72202). This assay kit can detect the activity of several MMPs such as MMP-1, 2, 7, 8, 9, 13, 14,15,16 and 24.
(§2) For screening MMP compounds, activated 2 nM of recombinant MMP-2, 8, 9 or 13 are pre-incubated with MMP compound (inhibitor) for 30 min at 37°C. The substrate is added and the inhibition of MMP activity is expressed as % of total activity (without the inhibitor incubation).

MMP-8 = MMP-8 (Homo sapiens, UniProt P22894); test: MMP compound screening with Fluorimetric SensoLyte 390 Generic MMP Activity Kit, recombinant MMP-8
MMP-8, sequence (P22894 101-467, species assumed): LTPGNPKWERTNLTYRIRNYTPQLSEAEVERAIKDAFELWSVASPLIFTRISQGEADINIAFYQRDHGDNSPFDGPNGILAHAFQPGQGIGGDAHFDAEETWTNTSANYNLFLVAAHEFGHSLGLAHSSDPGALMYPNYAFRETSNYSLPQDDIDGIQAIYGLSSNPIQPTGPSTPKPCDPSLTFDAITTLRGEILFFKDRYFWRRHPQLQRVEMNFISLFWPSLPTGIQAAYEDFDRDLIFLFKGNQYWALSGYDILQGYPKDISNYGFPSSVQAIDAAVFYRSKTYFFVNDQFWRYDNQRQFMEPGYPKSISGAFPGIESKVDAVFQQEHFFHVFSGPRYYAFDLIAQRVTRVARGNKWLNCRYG
Method: as §1, §2

MMP13 = MMP13 (Homo sapiens, UniProt P45452); test: MMP compound screening with Fluorimetric SensoLyte 390 Generic MMP Activity Kit, recombinant MMP-13
Method: as §1, §2

MMP-9 = MMP-9 (Homo sapiens, UniProt P14780); test: MMP compound screening with Fluorimetric SensoLyte 390 Generic MMP Activity Kit, recombinant MMP-9
MMP-9, sequence (P14780 107-707 limits assumed, species assumed): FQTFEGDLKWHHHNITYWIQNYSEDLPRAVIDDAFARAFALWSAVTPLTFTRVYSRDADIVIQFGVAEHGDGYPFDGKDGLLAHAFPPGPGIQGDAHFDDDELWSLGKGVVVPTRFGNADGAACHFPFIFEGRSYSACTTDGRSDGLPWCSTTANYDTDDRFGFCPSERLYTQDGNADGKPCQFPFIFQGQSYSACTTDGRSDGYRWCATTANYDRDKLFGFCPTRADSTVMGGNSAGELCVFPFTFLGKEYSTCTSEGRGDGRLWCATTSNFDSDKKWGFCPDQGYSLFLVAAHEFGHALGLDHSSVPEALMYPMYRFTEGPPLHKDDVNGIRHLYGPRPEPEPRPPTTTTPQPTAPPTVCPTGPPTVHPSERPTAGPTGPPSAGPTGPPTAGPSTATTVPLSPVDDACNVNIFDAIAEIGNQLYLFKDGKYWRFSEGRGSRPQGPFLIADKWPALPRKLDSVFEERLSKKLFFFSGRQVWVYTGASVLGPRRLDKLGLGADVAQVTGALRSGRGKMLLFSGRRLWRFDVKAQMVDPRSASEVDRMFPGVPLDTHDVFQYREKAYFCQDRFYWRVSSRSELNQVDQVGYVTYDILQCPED
Method: as §1, §2

inhibition at 0.1 µM (MMP-2; 0.1uM): 0%
inhibition at 1 µM (MMP-2; 1uM): 0%
inhibition at 0.1 µM (MMP-8; 0.1uM): 0%
inhibition at 1 µM (MMP-8; 1uM): 1%
inhibition at 0.1 µM (MMP13; 0.1uM): 0%
inhibition at 1 µM (MMP13; 1uM): 7%
inhibition at 0.1 µM (MMP-9; 0.1uM): 12%
inhibition at 1 µM (MMP-9; 1uM): 17%
Structure (SMILES): CCN1/C(=C/C=C/C=C/C2=[N+](CCCCCC(N)=O)c3ccc4c(S(=O)(=O)O)cc(S(=O)(=O)O)cc4c3C2(C)C)C(C)(C)c2c1ccc1c(S(=O)(=O)[O-])cc(S(=O)(=O)O)cc21 [Cy5.5]
